Test system: 379773-124-R-J2-PDC spheroid viability
Experiment: Anticancer human tumor 379773-124-R-J2-PDC patient-derived endometrial carcinoma cell line growth inhibition [POLQ]
Conditions: spheroids with HUVEC and MSC; for IC50: curve of first compound; for viability, T/C: stronger effect = lower value
Procedure, shortened: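 Growth inhibition in 3D: complex spheroids (tumor PDC, HUVEC, MSC) treated with POLQ inhibitor combinations; where Cmax unknown, highest tested concentration 10 microM, except SN-38 at 1 microM.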

[1] = second compound 0.0316 µM, first compound 0.00949 µM
[2] = second compound 0.0316 µM, first compound 0.03 µM
[3] = second compound 0.0316 µM, first compound 0.0949 µM
[4] = second compound 0.0316 µM, first compound 0.3 µM
[5] = second compound 0.0316 µM, first compound 0.949 µM
[6] = second compound 0.0316 µM, first compound 3 µM
[7] = second compound 0.1 µM, first compound 0.00949 µM
[8] = second compound 0.1 µM, first compound 0.03 µM
[9] = second compound 0.1 µM, first compound 0.0949 µM
[10] = second compound 0.1 µM, first compound 0.3 µM
[11] = second compound 0.1 µM, first compound 0.949 µM
[12] = second compound 0.1 µM, first compound 3 µM
[13] = second compound 0.316 µM, first compound 0.00949 µM
[14] = second compound 0.316 µM, first compound 0.03 µM
[15] = second compound 0.316 µM, first compound 0.0949 µM
[16] = second compound 0.316 µM, first compound 0.3 µM
[17] = second compound 0.316 µM, first compound 0.949 µM
[18] = second compound 0.316 µM, first compound 3 µM
[19] = second compound 1 µM, first compound 0.00949 µM
[20] = second compound 1 µM, first compound 0.03 µM
[21] = second compound 1 µM, first compound 0.0949 µM
[22] = second compound 1 µM, first compound 0.3 µM
[23] = second compound 1 µM, first compound 0.949 µM
[24] = second compound 1 µM, first compound 3 µM
[25] = second compound 3.16 µM, first compound 0.00949 µM
[26] = second compound 3.16 µM, first compound 0.03 µM
[27] = second compound 3.16 µM, first compound 0.0949 µM
[28] = second compound 3.16 µM, first compound 0.3 µM
[29] = second compound 3.16 µM, first compound 0.949 µM
[30] = second compound 3.16 µM, first compound 3 µM
[31] = second compound 10 µM, first compound 0.00949 µM
[32] = second compound 10 µM, first compound 0.03 µM
[33] = second compound 10 µM, first compound 0.0949 µM
[34] = second compound 10 µM, first compound 0.3 µM
[35] = second compound 10 µM, first compound 0.949 µM
[36] = second compound 10 µM, first compound 3 µM
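Note: spheroids exposed to drugs for seven days before readout.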
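Throughout, for viability, T/C: percent viability relative to DMSO vehicle control taken as 100%.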

CC(=O)O[C@H]1C(=O)[C@@]2(C)[C@H]([C@H](OC(=O)c3ccccc3)[C@]3(O)C[C@H](OC(=O)[C@H](O)[C@@H](NC(=O)c4ccccc4)c4ccccc4)C(C)=C1C3(C)C)[C@]1(OC(C)=O)CO[C@@H]1C[C@@H]2O + Nc1ccc(C#CCN(C(=O)Cc2ncc(C(F)(F)F)cc2C(F)(F)F)c2ccc(F)cc2)nn1
IC50 (second compound 0.0316 µM): < 9.49 nM | IC50 (second compound 0.1 µM): < 9.49 nM | IC50 (second compound 0.316 µM): < 9.49 nM | IC50 (second compound 1 µM): < 9.49 nM | IC50 (second compound 3.16 µM): < 9.49 nM | IC50 (second compound 10 µM): < 9.49 nM | viability, T/C [1]: 22.9% | viability, T/C [2]: 8.34% | viability, T/C [3]: 8.59% | viability, T/C [4]: 12% | viability, T/C [5]: 7.39% | viability, T/C [6]: 10.1% | viability, T/C [7]: 19% | viability, T/C [8]: 11.5% | viability, T/C [9]: 8.46% | viability, T/C [10]: 9.83% | viability, T/C [11]: 9.69% | viability, T/C [12]: 8.71% | viability, T/C [13]: 23.7% | viability, T/C [14]: 9.89% | viability, T/C [15]: 10.2% | viability, T/C [16]: 12.1% | viability, T/C [17]: 10.1% | viability, T/C [18]: 9.75% | viability, T/C [19]: 28.3% | viability, T/C [20]: 10.3% | viability, T/C [21]: 10.1% | viability, T/C [22]: 9.22% | viability, T/C [23]: 10.3% | viability, T/C [24]: 8.87% | viability, T/C [25]: 23.4% | viability, T/C [26]: 9.86% | viability, T/C [27]: 9.86% | viability, T/C [28]: 10.8% | viability, T/C [29]: 11% | viability, T/C [30]: 9.15% | viability, T/C [31]: 25.1% | viability, T/C [32]: 10.9% | viability, T/C [33]: 9.07% | viability, T/C [34]: 10.1% | viability, T/C [35]: 8.38% | viability, T/C [36]: 8.52%

CC(=O)O[C@H]1C(=O)[C@@]2(C)[C@H]([C@H](OC(=O)c3ccccc3)[C@]3(O)C[C@H](OC(=O)[C@H](O)[C@@H](NC(=O)c4ccccc4)c4ccccc4)C(C)=C1C3(C)C)[C@]1(OC(C)=O)CO[C@@H]1C[C@@H]2O + Cc1cccc(N(C)C(=O)C2C(O)CCN2c2nc(C)cc(C(F)(F)F)c2C#N)c1
IC50 (second compound 0.0316 µM): < 9.49 nM | IC50 (second compound 0.1 µM): < 9.49 nM | IC50 (second compound 0.316 µM): < 9.49 nM | IC50 (second compound 1 µM): < 9.49 nM | IC50 (second compound 3.16 µM): < 9.49 nM | IC50 (second compound 10 µM): < 9.49 nM | viability, T/C [1]: 24.4% | viability, T/C [2]: 11.6% | viability, T/C [3]: 7.9% | viability, T/C [4]: 12.8% | viability, T/C [5]: 13.3% | viability, T/C [6]: 10.6% | viability, T/C [7]: 25.5% | viability, T/C [8]: 8.1% | viability, T/C [9]: 9.59% | viability, T/C [10]: 9.63% | viability, T/C [11]: 10.5% | viability, T/C [12]: 7.41% | viability, T/C [13]: 27.3% | viability, T/C [14]: 9.48% | viability, T/C [15]: 11.7% | viability, T/C [16]: 9.83% | viability, T/C [17]: 10.2% | viability, T/C [18]: 9.11% | viability, T/C [19]: 23.7% | viability, T/C [20]: 13.9% | viability, T/C [21]: 11.9% | viability, T/C [22]: 10.7% | viability, T/C [23]: 10.9% | viability, T/C [24]: 7.53% | viability, T/C [25]: 15.8% | viability, T/C [26]: 8.23% | viability, T/C [27]: 10.8% | viability, T/C [28]: 11.8% | viability, T/C [29]: 10.8% | viability, T/C [30]: 12% | viability, T/C [31]: 16.4% | viability, T/C [32]: 10.1% | viability, T/C [33]: 9.57% | viability, T/C [34]: 10.7% | viability, T/C [35]: 10.5% | viability, T/C [36]: 7.56%
